Laboratory results from US20200360391A1, “Medicinal Composition for Treating Intractable Heart Disease” (Osaka University, priority 2016, published 2020).

Assays:
[1] = test system: spontaneous dilated cardiomyopathy (J2N-k) hamster model; assay: Spontaneous dilated cardiomyopathy (J2N-k) hamster model, 8-week administration from 20 weeks of age (Tests 1-3): echocardiography, body weight
Procedure, shortened: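 Male J2N-k δ-glycan-deficient hamsters (delivered at 18 weeks; 2-week acclimation) were dosed by oral gavage twice daily for 8 weeks in 0.5% CMC-Na (G in distilled water; 5 mL/kg) at human-equivalent doses, e.g. cilostazol 1.7 mg/kg. Camostat PLGA preparation was given 10 mg/kg s.c. every 4 weeks. Echocardiographic EF/FS changes from baseline were assessed at 4 and 8 weeks versus vehicle.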

rats = conditions: repeated oral administration in rats; cited from earlier work
[2] = test system: spontaneous dilated cardiomyopathy (J2N-k) hamster model; assay: Long-term (36 weeks) administration in J2N-k hamster model: cardiac function, survival rate; type: in vivo
Description: ONO-1301 and (K) candesartan, which is ARB, were each individually orally administered to a δ-glycan-deficient spontaneous dilated cardiomyopathy (J2N-k) hamster model twice daily repeatedly for 36 weeks, after the onset of pathological condition (20 weeks old); and changes in cardiac function and survival rates in long-term administration were compared for evaluation. Specifically, echocardiographic measurement was performed after the onset of pathological condition (20 weeks old); the animals were grouped evenly based on the ejection fractions (EF values) and the body weights (Table 15), and each test substance was individually administered for 36 weeks.
The test was performed in the same manner as described in the section “1. Investigation of effects in spontaneous dilated cardiomyopathy (J2N-k) hamster model” above.
ONO-1301 was administered at 3 mg/kg twice per day. Candesartan was administered at 3 mg/kg once per day, and only vehicle was administered at the second administration. To the control group, vehicle (0.5% CMC-Na) was administered twice daily.

dogs = conditions: repeated oral administration in dogs; cited from earlier work
[3] = test system: rat coronary artery complete ischemia model; assay: Model of ischemia (MI) by rat coronary artery complete ligation (Tests 1 and 2): echocardiography, body weight; conditions: for Body weight / % FS: value of change compared with the value on Day 1 / EF: value of change compared with the value on Day 1: MI Test 1, NOAEL doses, mean ± S.D.
[4] = test system: canine rapid pacing severe dilated cardiomyopathy model; assay: Canine rapid pacing severe dilated cardiomyopathy model, long-term repeated oral administration; type: in vivo
Description: (§1) A sham operation was performed for a Sham group. After the pacemaker was operated, and it was confirmed in an electrocardiogram (Lead II) that the heartbeat was linked to the pulse rate, the incision site was sutured.
(§2) The animals were grouped evenly based on the cardiac function (EF) 4 weeks after rapid pacing. […] An empty capsule was administered to the control group in the same manner.
(§3) Electrocardiography (Lead II) was performed once a week during the period of induction of pathological condition (4 weeks). After administration of the test substance, electrocardiography was performed at the time of echocardiographic measurement. Examination with a stethoscope was performed every day. Specifically, the number of beats per 10 seconds was measured every day, and if an abnormality was found in examination with a stethoscope, an electrocardiogram was measured to confirm the presence or absence of pacing errors.
(§4) The general condition of the animals (death, posture, activity, color of gums, the presence or absence of ascites, feces, etc.) and food intake were observed every day (at the time of administration in the morning and in the evening, i.e., twice). […] The survival rate was observed twice daily for 6 months from the day of the start of administration of the test substance. Moribund animals were determined to be dead when they had no reaction in at least one item of examination of pinna, auditory, and nociception reflexes.
(§5) The body weight was measured on the date of implantation of the pacemaker, the date of operation of the pacemaker, and every week thereafter.
(§6) Echocardiographic measurement was performed before the preparation of the model (Pre); Week 4 (at the time of grouping) (before administration of the test substance); and 2 weeks, 4 weeks (1 month), 2 months, 3 months, 4 months, 5 months, and 6 months (at the time of dissection) after the start of administration of the test substance, as measurement points.
(§7) The echocardiographic measurement was performed without anesthesia, using an ultrasound imaging apparatus. A sector probe (10 MHz) was placed on the chest, and the diastolic left ventricular internal dimension (LVIDd), the systolic left ventricular internal dimension (LVIDs), the interventricular septal thickness at end-diastole (IVSTd), and the left ventricular posterior wall thickness in end diastole (LVPWd) were measured at M-mode. Moreover, the ejection fraction […] and the fractional shortening […] were calculated.

[5] = as above; type: in vivo; conditions: dog, in vivo; after oral administration, 3 mg/kg
Description: as §1, §2, §3, §4, §5, §6, §7

[6] = Test 1, p.o. b.i.d., NOAEL-based dose

## O=C(O)COc1cccc2c1CCC=C2CCO/N=C(\c1ccccc1)c1cccnc1 [Compound A, (E)-[5-[2-[1-phenyl-1-(3-pyridyl)methylideneaminooxy]ethyl]-7,8-dihydronaphthalen-1-yloxy]acetic acid]
[1]; Test 1, at grouping
  Body weight 0 W: 112.5 g
[1]; Test 1, p.o. b.i.d.
  LVIDd 4 W: 6.9 mm
  LVIDd 8 W: 7.6 mm
  LVIDs 4 W: 5.6 mm
  LVIDs 8 W: 6.2 mm
[1]; [6]
  Body weight 4 W: 120.2 g
  Body weight 8 W: 120.6 g
rats
  No-observed-adverse-effect level: 3 mg/kg
[2]
  Effect in long-term administration compared with candesartan: effect superior to that of candesartan
[2]; 3.0 mg/kg
  EF compared with control group: significant improvement effect
  FS% compared with control group: Significantly higher values
dogs
  No-observed-adverse-effect level: 3 mg/kg
[3]; MI Test 1, 28-day repeated oral administration b.i.d., NOAEL-based doses
  Action on left ventricular systolic function: suppression action on the deterioration of left ventricular systolic function
[3]; 1 Day (grouping)
  Body weight: 231.4 ± 4.9 g
[3]; 7 Day
  % FS: value of change compared with the value on Day 1: 1%
  Body weight: 237.8 ± 15.0 g
  EF: value of change compared with the value on Day 1: 1%
[3]; 14 Day
  % FS: value of change compared with the value on Day 1: 0%
  Body weight: 257.1 ± 20.7 g
  EF: value of change compared with the value on Day 1: 0%
[3]; 21 Day
  Body weight: 277.1 ± 17.3 g
[3]; 29 Day
  % FS: value of change compared with the value on Day 1: -3%
  Body weight: 293.6 ± 18.9 g
  EF: value of change compared with the value on Day 1: -6%
[4]; 3 mg/kg p.o. twice daily
  Number of animals alive 26 weeks after start of administration: 1/6
  Time after start of administration at which death was first observed: 44 days
[4]; 3 mg/kg p.o. twice daily, 26 weeks
  Survival rate (Kaplan-Meier curve) compared with control: significant prolonging effect on the survival rate
[4]; 2 weeks and 4 weeks after start of administration
  Amount of change (Δ) in EF compared with control: significantly higher
[4]; 6 weeks and 8 weeks after start of administration
  Body weight gain compared with control: suppressed
[4]; oral 3 mg/kg
  Effect on heart rate in echocardiography at Tmax: no effect on the heart rate
[5]
  Tmax: 1.5 to 2.5 h
